Measured values published in patent US10072017B2, “Compounds and methods for the treatment of cystic fibrosis” (Flatley Discovery Lab, LLC, priority 2015, dated 2018).

Target: T1, CFTR (Homo sapiens, UniProt P13569, DEL508-508)
T1 construct: Primary CF airway epithelial cells were obtained from the UNC Cystic Fibrosis Tissue Procurement and Cell Culture Core; host or cells: primary CF airway epithelial cells
Assay: Equivalent current assay in Primary CF airway epithelial cells (NAUC)
Format: cell-based
Details: 24 h, normalized to VX809 (3 μM) positive control; for Nauc @ 3 μM: 3 μM test compound; for Nauc @ 10 μM: 10 μM test compound
Outline: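 Primary CF airway epithelia differentiated ≥4 weeks at air-liquid interface, treated basolaterally 24 h at 37 °C with test compounds in combination with VX809, 0.1% DMSO vehicle. Equivalent current recorded after 5 μM benzamil, 10 μM forskolin plus 1 μM VX770, then CFTR-172/bumetanide 20 μM; vehicle-subtracted AUC normalized to 3 μM VX809 (NAUC), median of n≥4, sigmoid fit for EC50.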

T1 sequence (P13569 with tags, fused parts or gaps DEL508-508): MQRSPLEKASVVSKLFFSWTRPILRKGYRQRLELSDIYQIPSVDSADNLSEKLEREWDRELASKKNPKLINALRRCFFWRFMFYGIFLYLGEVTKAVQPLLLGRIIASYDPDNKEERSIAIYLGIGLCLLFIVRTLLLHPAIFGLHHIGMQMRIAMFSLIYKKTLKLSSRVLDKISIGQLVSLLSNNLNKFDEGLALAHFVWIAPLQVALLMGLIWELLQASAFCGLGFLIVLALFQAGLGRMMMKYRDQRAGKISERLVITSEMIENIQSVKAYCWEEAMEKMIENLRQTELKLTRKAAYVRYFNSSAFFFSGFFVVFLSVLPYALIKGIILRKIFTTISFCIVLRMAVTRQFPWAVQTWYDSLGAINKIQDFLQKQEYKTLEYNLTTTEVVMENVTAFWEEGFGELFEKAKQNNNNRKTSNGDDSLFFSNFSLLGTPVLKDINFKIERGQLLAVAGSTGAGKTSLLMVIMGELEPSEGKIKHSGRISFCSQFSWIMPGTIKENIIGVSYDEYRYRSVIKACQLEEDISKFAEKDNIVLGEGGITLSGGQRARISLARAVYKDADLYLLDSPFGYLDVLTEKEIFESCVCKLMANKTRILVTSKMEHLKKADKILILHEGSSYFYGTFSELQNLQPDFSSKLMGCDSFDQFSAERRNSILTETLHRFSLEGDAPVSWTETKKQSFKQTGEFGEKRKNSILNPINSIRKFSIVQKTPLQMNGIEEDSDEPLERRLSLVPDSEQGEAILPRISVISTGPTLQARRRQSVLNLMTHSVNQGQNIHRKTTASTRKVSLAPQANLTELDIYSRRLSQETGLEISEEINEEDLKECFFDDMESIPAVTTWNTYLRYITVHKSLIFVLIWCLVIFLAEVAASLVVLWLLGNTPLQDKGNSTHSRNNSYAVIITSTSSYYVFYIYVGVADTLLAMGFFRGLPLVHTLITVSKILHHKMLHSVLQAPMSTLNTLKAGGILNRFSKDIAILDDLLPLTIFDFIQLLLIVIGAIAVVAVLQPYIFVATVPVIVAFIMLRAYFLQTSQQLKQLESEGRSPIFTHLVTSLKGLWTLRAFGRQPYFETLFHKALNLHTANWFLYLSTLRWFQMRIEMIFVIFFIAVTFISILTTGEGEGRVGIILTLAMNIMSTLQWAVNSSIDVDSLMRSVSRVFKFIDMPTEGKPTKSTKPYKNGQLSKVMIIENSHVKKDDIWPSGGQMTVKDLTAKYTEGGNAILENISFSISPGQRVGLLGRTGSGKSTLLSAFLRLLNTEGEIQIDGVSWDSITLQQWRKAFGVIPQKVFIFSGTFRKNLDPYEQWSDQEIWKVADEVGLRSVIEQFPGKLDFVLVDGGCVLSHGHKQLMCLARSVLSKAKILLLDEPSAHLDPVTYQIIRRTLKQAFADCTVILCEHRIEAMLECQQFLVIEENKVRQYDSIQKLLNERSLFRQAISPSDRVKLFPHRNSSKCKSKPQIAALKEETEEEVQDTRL

SMILES	Nauc @ 3 μM	Nauc @ 10 μM
O=C1C2C3CC(C(F)F)CN3C3(C(=O)Nc4c(Cl)cc(Cl)cc43)C2C(=O)N1c1cc(Cl)cc(Cl)c1 (stereo not shown) [Example 136]	+++ (NAUC “+++” refers to an observed NAUC >170% of positive control)	+++ (NAUC “+++” refers to an observed NAUC >170% of positive control)
COc1c(Cl)cc(N2C(=O)C3C4CC5(CC5)CN4C4(C(=O)Nc5c(Cl)cc(Cl)cc54)C3C2=O)cc1Cl (stereo not shown) [Example 177]	++ (NAUC “++” refers to an observed NAUC 170-140% of positive control)	+++ (NAUC “+++” refers to an observed NAUC >170% of positive control)
COc1c(Cl)cc(N2C(=O)C3C4C[C@@](C)(F)CN4C4(C(=O)Nc5c(Cl)cc(Cl)cc54)C3C2=O)cc1Cl (single isomer, unassigned) [Example 162]	+ (NAUC “+” refers to an observed NAUC <140% of positive control)	++ (NAUC “++” refers to an observed NAUC 170-140% of positive control)
O=C1C2C3CCCN3C3(C(=O)Nc4c(Cl)cc(Cl)cc43)C2C(=O)N1c1cc(Cl)cc(Cl)n1 (single isomer, unassigned) [Example 67]	+++ (NAUC “+++” refers to an observed NAUC >170% of positive control)	+++ (NAUC “+++” refers to an observed NAUC >170% of positive control)
C[C@]1(F)CC2C3C(=O)N(c4cc(Cl)cc(Cl)c4)C(=O)C3C3(C(=O)Nc4c(Cl)cc(Cl)cc43)N2C1 (stereo partly drawn) [Example 10, (7′S)-5,7-dichloro-2′-(3,5-dichlorophenyl)-7′-fluoro-7′-methyl-3a′,6′,7′,8′,8a′,8b′-hexahydro-1′H-spiro[indoline-3,4′-pyrrolo[3,4-a]pyrrolizine]-1′,2,3′(2′H)-trione]	+++ (NAUC “+++” refers to an observed NAUC >170% of positive control)	+++ (NAUC “+++” refers to an observed NAUC >170% of positive control)
O=C1C2C3C[C@H](O)CN3C3(C(=O)Nc4c(Br)cc(Br)cc43)C2C(=O)N1c1cc(Cl)cc(Cl)c1 (stereo partly shown) [Example 40]	+++ (NAUC “+++” refers to an observed NAUC >170% of positive control)	+++ (NAUC “+++” refers to an observed NAUC >170% of positive control)
Cc1nc(CC2NC3(C(=O)Nc4c(Cl)cc(Cl)cc43)C3C(=O)N(c4cc(Cl)cc(Cl)c4)C(=O)C23)cs1 (stereo not shown) [Example 248]	+ (NAUC “+” refers to an observed NAUC <140% of positive control)	++ (NAUC “++” refers to an observed NAUC 170-140% of positive control)
C[C@]1(O)CC2C3C(=O)N(c4cc(Cl)cc(Cl)c4)C(=O)C3C3(C(=O)Nc4c(Cl)cc(Cl)cc43)N2C1 (stereo partly shown) [Example 171]	+++ (NAUC “+++” refers to an observed NAUC >170% of positive control)	+++ (NAUC “+++” refers to an observed NAUC >170% of positive control)
CC1(C)CC2C3C(=O)N(c4cc(Cl)cc(Cl)n4)C(=O)C3C3(C(=O)Nc4c(Cl)cc(Cl)cc43)N2C1 (stereo not shown) [Example 129]	++ (NAUC “++” refers to an observed NAUC 170-140% of positive control)	++ (NAUC “++” refers to an observed NAUC 170-140% of positive control)
CC12C(=O)N(c3cc(Cl)cc(Cl)c3)C(=O)C1(C)C1(C(=O)Nc3c(Cl)cc(Cl)cc31)N1CCCC12 (stereo not shown) [Example 39]	+ (NAUC “+” refers to an observed NAUC <140% of positive control)	++ (NAUC “++” refers to an observed NAUC 170-140% of positive control)
O=C1C2C3C[C@H](O)CN3C3(C(=O)Nc4c(Cl)cc(Cl)cc43)C2C(=O)N1c1cc(Cl)cc(Br)c1 (stereo partly shown) [Example 41]	++ (NAUC “++” refers to an observed NAUC 170-140% of positive control)	+++ (NAUC “+++” refers to an observed NAUC >170% of positive control)
